The values that follow come from patent US9670227B2, “Thienopyrimidine derivatives, a process for their preparation and pharmaceutical compositions containing them” (LES LABORATOIRES SERVIER, priority 2013, dated 2017).

The target of assay [1] is Mcl-1 protein (UniProtKB primary accession number: Q07820) (Homo sapiens, UniProt Q07820). The assay is described as follows: Inhibition of Mcl-1 by fluorescence polarisation, Method 1. Format: binding. Conditions: for IC50: read-out: IC50 (M) Mcl-1 FP; for percentage fluorescence polarisation inhibition, Mcl-1 FP: partial inhibitors, @ 10 uM test compound. Put shortly: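 FP readout of relative binding potency. Mcl-1 5 nM final, fluorescein-labelled ligand 1 nM final; buffer 10 mM HEPES, 150 mM NaCl, 0.05% Tween 20, pH 7.4; 11-pt dilution series, 5% DMSO final.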
Mcl-1 protein, sequence (Q07820 whole entry): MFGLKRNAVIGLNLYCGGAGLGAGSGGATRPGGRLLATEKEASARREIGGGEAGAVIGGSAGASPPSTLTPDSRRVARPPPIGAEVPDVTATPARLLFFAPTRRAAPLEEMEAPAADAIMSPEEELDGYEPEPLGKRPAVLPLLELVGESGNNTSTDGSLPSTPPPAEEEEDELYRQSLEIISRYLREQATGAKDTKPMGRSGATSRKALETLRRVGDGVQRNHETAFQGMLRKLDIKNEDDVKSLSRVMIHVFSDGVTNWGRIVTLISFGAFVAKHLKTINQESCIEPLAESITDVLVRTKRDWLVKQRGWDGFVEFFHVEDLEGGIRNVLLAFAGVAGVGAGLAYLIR
For orientation: Polarisation of emitted light reports the rotation of a fluorescent probe.

The test system of assay [2] is H929 multiple myeloma tumour line. The assay is described as follows: In vitro cytotoxicity, Microculture Tetrazolium Assay. Format: cell-based. To be noted: Homo sapiens, NCI-H929, 48 h, H929 cells, 48 hours exposure, read-out: IC50 (μM) MTT H929. The procedure:
The cytotoxicity studies were carried out on the H929 multiple myeloma tumour line.
The cells are distributed onto microplates and exposed to the test compounds for 48 hours.

Assay [3] deals with AMO-1 multiple myeloma cells. The assay is described as follows: Quantification of the cleaved form of PARP in vivo (MSD ELISA, tumour lysates). More on the design: species or system mice (SCID strain). To be noted: activation factor: cleaved PARP in treated mice / control mice, AMO-1 xenograft in SCID mice, intraveinous or oral routes. The method, then: The ability of the compounds of the invention to induce apoptosis, by measuring cleaved PARP levels, is evaluated in a xenograft model of AMO-1 multiple myeloma cells. 1.10^7 AMO-1 cells are grafted sub-cutaneously into immunosuppressed mice (SCID strain). 12 to 14 days after the graft, the animals are treated by intraveinous or oral routes with the various compounds. After treatment, the tumour masses are recovered and lysed, and the cleaved form of PARP is quantified in the tumour lysates.
The quantification is carried out using the “Meso Scale Discovery (MSD) ELISA platform” test, which specifically assays the cleaved form of PARP. It is expressed in the form of an activation factor corresponding to the ratio between the quantity of cleaved PARP in the treated mice divided by the quantity of cleaved PARP in the control mice.
Background: An ELISA detects its analyte on a solid surface through an enzyme-linked reagent.

[4] abbreviates: fluorescence polarisation, Method 1, or Method 2.
[5] abbreviates: fluorescence polarisation test, Method 2 values are underlined in the patent (underlining not visible here).
Setting [6] is: fluorescence polarisation test, Method 1, or Method 2 where the value is underlined (underlining not visible).

Each structure is given as a SMILES string. Where two headings read alike, the source gives them in different places.

A word on the IC50: it is the concentration that inhibits the measured activity by half. As to `COc1ccccc1-c1nccc(COc2ccccc2CC(Oc2ncnc3sc(-c4ccc(OCc5ccccc5)cc4)c(-c4ccc(OCCN5CCN(C)CC5)c(Cl)c4C)c23)C(=O)O)n1` [Example 762, (2R)-2-[(6-[4-(benzyloxy)phenyl]-(5Sa)-5-{3-chloro-2-methyl-4-[2-(4-methylpiperazin-1-yl)ethoxy]phenyl}thieno[2,3-d]pyrimidin-4-yl)oxy]-3-(2-{[2-(2-methoxyphenyl)pyrimidin-4-yl]methoxy}phenyl)propanoic acid], the IC50 in assay [1] (setting [4]) was 1.88e-09 M; in assay [2] (MTT) it was 0.014 µM. In assay [3], this compound returned a PARP fold of 136.9 fold.

As for `Cc1c(-c2c(-c3ccc(F)o3)sc3ncnc(OC(Cc4ccccc4OCc4ccnc(N5CCOCC5)n4)C(=O)O)c23)ccc(OCCN(C)C)c1Cl` [Example 202, (2R)-2-{[(5Sa)-5-{3-chloro-4-[2-(dimethylamino)ethoxy]-2-methylphenyl}-6-(5-fluorofuran-2-yl)thieno[2,3-d]pyrimidin-4-yl]oxy}-3-(2-{[2-(morpholin-4-yl)pyrimidin-4-yl]methoxy}phenyl)propanoic acid], the results for the IC50 in assay [1] (setting [5]) and in assay [2] (MTT) were 3.5e-09 M and 0.009 µM, respectively. Besides, the PARP fold in assay [3] stood at 153.8 fold.

In the case of `Cc1c(-c2c(-c3ccc(F)cc3)sc3ncnc(OC(Cc4ccccc4OCc4ccnc(OC(C)C)n4)C(=O)O)c23)ccc(OCCN2CCN(C)CC2)c1Cl` [Example 55, (2R)-2-{[(5Sa)-5-{3-chloro-2-methyl-4-[2-(4-methylpiperazin-1-yl)ethoxy]phenyl}-6-(4-fluorophenyl)thieno[2,3-d]pyrimidin-4-yl]oxy}-3-(2-{[2-(propan-2-yloxy)pyrimidin-4-yl]methoxy}phenyl)propanoic acid], the results for the IC50 in assay [1] (setting [5]) and in assay [2] (MTT) were 5.8e-09 M and 0.007 µM, respectively. In addition, the PARP fold in assay [3] is 188.4 fold.

As for `COc1ccccc1-c1nccc(COc2ccccc2CC(Oc2ncnc3sc(-c4ccc(F)cc4)c(-c4ccc(OCCN5CCN(C)CC5)c(Cl)c4C)c23)C(=O)OCc2oc(=O)oc2C)n1` [Example 811, (5-methyl-2-oxo-1,3-dioxol-4-yl)methyl (2R)-2-{[(5Sa)-5-{3-chloro-2-methyl-4-[2-(4-methylpiperazin-1-yl)ethoxy]phenyl}-6-(4-fluorophenyl)thieno[2,3-d]pyrimidin-4-yl]oxy}-3-(2-{[2-(2-methoxyphenyl)pyrimidin-4-yl]methoxy}phenyl)propanoate], the IC50 is 8.55e-09 M in assay [1] (setting [6]) and 0.002 µM in assay [2] (cell viability). The compound further returned a PARP fold in assay [3] of 117.6 fold.

Take `Cc1c(-c2c(-c3ccc(F)cc3)sc3ncnc(OC(Cc4ccccc4OCc4ccnc(-n5cccn5)n4)C(=O)O)c23)ccc(OCCN2CCN(C)CC2)c1Cl` [Example 49, (2R)-2-{[(5Sa)-5-{3-chloro-2-methyl-4-[2-(4-methylpiperazin-1-yl)ethoxy]phenyl}-6-(4-fluorophenyl)thieno[2,3-d]pyrimidin-4-yl]oxy}-3-(2-{[2-(1H-pyrazol-1-yl)pyrimidin-4-yl]methoxy}phenyl)propanoic acid]: the IC50 in assay [1] (setting [5]) stood at 2.5e-09 M; in assay [2] (MTT) it was 0.012 µM. The compound further came in with a PARP fold in assay [3] of 180.5 fold.

As for `CCOC(=O)[C@@H](Cc1ccccc1OCc1ccnc(-c2ccccc2OC)n1)Oc1ncnc2sc(-c3ccc(F)cc3)c(-c3ccc(OCCN4CCN(C)CC4)c(Cl)c3C)c12` [Example 639, ethyl (2R)-2-{[(5Sa)-5-{3-chloro-2-methyl-4-[2-(4-methylpiperazin-1-yl)ethoxy]phenyl}-6-(4-fluorophenyl)thieno[2,3-d]pyrimidin-4-yl]oxy}-3-(2-{[2-(2-methoxyphenyl)pyrimidin-4-yl]methoxy}phenyl)propanoate], the “percentage fluorescence polarisation inhibition, Mcl-1 FP” value in assay [1] is given as 66.25% @ 10 uM. The PARP fold in assay [3] is on record as 195.7 fold.

Turning to `CCOC(=O)[C@@H](Cc1ccccc1OCc1ccnn1C(C)C)Oc1ncnc2sc(-c3ccc(F)o3)c(-c3ccc(OCCN4CCN(C)CC4)c(Cl)c3C)c12` [Example 623, ethyl (2R)-2-{[(5Sa)-5-{3-chloro-2-methyl-4-[2-(4-methylpiperazin-1-yl)ethoxy]phenyl}-6-(5-fluorofuran-2-yl)thieno[2,3-d]pyrimidin-4-yl]oxy}-3-(2-{[1-(propan-2-yl)-1H-pyrazol-5-yl]methoxy}phenyl)propanoate], the “percentage fluorescence polarisation inhibition, Mcl-1 FP” value in assay [1] was determined as 67.8% @ 10 uM. The same compound registered a PARP fold in assay [3] of 441.5 fold.

As to `CCOC(=O)[C@@H](Cc1ccccc1OCc1ccnc(OCC(F)(F)F)n1)Oc1ncnc2sc(-c3ccc(F)cc3)c(-c3ccc(OCCN4CCN(C)CC4)c(Cl)c3C)c12` [Example 638, ethyl (2R)-2-{[(5Sa)-5-{3-chloro-2-methyl-4-[2-(4-methylpiperazin-1-yl)ethoxy]phenyl}-6-(4-fluorophenyl)thieno[2,3-d]pyrimidin-4-yl]oxy}-3-(2-{[2-(2,2,2-trifluoroethoxy)pyrimidin-4-yl]methoxy}phenyl)propanoate], in assay [1], the “percentage fluorescence polarisation inhibition, Mcl-1 FP” value is given as 34.5% @ 10 uM. In assay [3], this compound had a PARP fold of 136.7 fold.

`CCOC(=O)C(Cc1ccccc1OCc1ccnn1C(C)(C)C)Oc1ncnc2sc(-c3ccc(F)cc3)c(-c3ccc(OCCN(C)C)c(Cl)c3C)c12` [Example 794, ethyl (2R)-3-{2-[(1-tert-butyl-1H-pyrazol-5-yl)methoxy]phenyl}-2-{[(5Sa)-5-{3-chloro-4-[2-(dimethylamino)ethoxy]-2-methylphenyl}-6-(4-fluorophenyl)thieno[2,3-d]pyrimidin-4-yl]oxy}propanoate]: the IC50 in assay [1] (setting [6]) was 5.35e-06 M. Also, in assay [3], the PARP fold is on record as 125.6 fold.

Turning to `CCOC(=O)C(Cc1ccccc1OCc1ccnc(-c2ccccc2OC)n1)Oc1ncnc2sc(-c3ccc(F)cc3)c(-c3ccc(OCCN(C)C)c(Cl)c3C)c12` [Example 756, Ethyl (2R)-2-{[(5Sa)-5-{3-chloro-4-[2-(dimethylamino)ethoxy]-2-methylphenyl}-6-(4-fluorophenyl)thieno[2,3-d]pyrimidin-4-yl]oxy}-3-(2-{[2-(2-methoxyphenyl)pyrimidin-4-yl]methoxy}phenyl)propanoate], the IC50 in assay [1] (setting [4]) was determined as 6.89e-07 M. Moreover, the PARP fold in assay [3] is 117 fold.

For `CCOC(=O)C(Cc1ccccc1OCc1ccnc(-c2ccccc2F)n1)Oc1ncnc2sc(-c3ccc(F)cc3)c(-c3ccc(OCCN4CCN(CC)CC4)c(Cl)c3C)c12` [Example 790, ethyl (2R)-2-{[(5Sa)-5-{3-chloro-4-[2-(4-ethylpiperazin-1-yl)ethoxy]-2-methylphenyl}-6-(4-fluorophenyl)thieno[2,3-d]pyrimidin-4-yl]oxy}-3-(2-{[2-(2-fluorophenyl)pyrimidin-4-yl]methoxy}phenyl)propanoate], the IC50 in assay [1] (setting [4]) is 1.91e-06 M. The same compound showed a PARP fold in assay [3] of 282.9 fold.

For the compound `COc1ccccc1CC(Oc1ncnc2sc(-c3ccc(F)c(O)c3)c(-c3ccc(OCCN4CCN(C)CC4)c(Cl)c3C)c12)C(=O)O` [Example 534, (2R)-2-{[(5Sa)-5-{3-chloro-2-methyl-4-[2-(4-methylpiperazin-1-yl)ethoxy]phenyl}-6-(4-fluoro-3-hydroxyphenyl)thieno[2,3-d]pyrimidin-4-yl]oxy}-3-(2-methoxyphenyl)propanoic acid], the IC50 was found to be 1.6e-08 M in assay [1] (setting [4]) and 0.413 µM in assay [2] (MTT).
